According to patent US7462622B2, “Pyrrolo[2, 3-d] pyrimidine derivatives as corticotropin releasing factor antagonists” (Glaxo Group Limited, priority 2001, dated 2008):

Test system: recombinant human CRF receptors
Test: CRF receptors-binding assay by scintillation proximity (SPA), displacement of 125I-oCRF (CRF1) / 125I-Sauvagine (CRF2)
Conditions: qualitative statement; assay not specified
Experimental: The CRF receptors-binding assay was performed by using the homogeneous technique of scintillation proximity (SPA). The ligand binds to recombinant membrane preparation expressing the CRF receptors which in turn bind to wheat germ agglutinin coated SPA beads. In the Experimental Part will be disclosed the details of the experiments.
CRF binding affinity has been determined in vitro by the compounds' ability to displace ^125I-oCRF and ^125I-Sauvagine for CRF1 and CRF2 SPA, respectively, from recombinant human CRF receptors expressed in Chinese Hamster Ovary (CHO) cell membranes. For membrane preparation, CHO cells from confluent T-flasks were collected in SPA buffer (HEPES/KOH 50 mM, EDTA 2 mM; MgCl2 10 mM, pH 7.4.) in 50 mL centrifuge tubes, homogenized with a Polytron and centrifuged (50,000 g for 5 min at 4° C.: Beckman centrifuge with JA20 rotor). The pellet was resuspended, homogenized and centrifuged as before.
The SPA experiment has been carried out in Optiplate by the addition of 100 μL the reagent mixture to 1 μL of compound dilution (100% DMSO solution) per well. […]
The plate was incubated overnight (>18 hrs) at room temperature and read with the Packard Topcount with a WGA-SPA ^125I counting protocol.

activity: good activity
SMILES: CCC(COC)Oc1nc(C)nc2c1CCN2c1ccc(C(F)(F)F)cc1C(F)(F)F (stereo not shown) [Compound 1-12, 7-(2,4-bis-trifluoromethyl-phenyl)-4-(1-methoxymethyl-propoxy)-2-methyl-6,7-dihydro-5H-pyrrolo[2,3-d]pyrimidine]
